Experiments:
[1] = system: SARS-CoV-2 virus (WA1/2020) strain; type: cell-based; settings: for antiviral activity (in words): incubated with SARS-CoV-2; for % viral reduction: virus pre-incubated 10 minutes with sample (conc./dilution per Table 2A), diluted four times, added to vero cells, 48/72 hours, supernatant plaque assay
viral particles = settings: electron microscopy; cited from earlier work

Molecule	antiviral activity (in words) [1]	% viral reduction [1]	virucidal effect (in words) (viral particles)
CC/C=C\C/C=C\C/C=C\CCCCCCCC(=O)O [ALA, α-linolenic acid]	showed antiviral activity	97.13%	
CCCCC/C=C\C/C=C\C/C=C\CCCCC(=O)O [GLA, gamma-linolenic acid]	showed antiviral activity	96.98%	lyse and completely disintegrate viral particles
CCCCC/C=C\C/C=C\CCCCCCCC(=O)O [LA, Linoleic acid]	showed antiviral activity	97.42%	lyse and completely disintegrate viral particles
Triton X100 [reference compound]		95.23%	

— patent US20230218557A1, “A FATTY ACID BASED COMPOSITION FOR TREATMENT AND/OR PREVENTION OF ENVELOPED-VIRUS RELATED INFECTIONS” (priority 2020, published 2023)
